{"source": "patent US20110092465A1", "about": "“MONOMERIC PYROPHOSPHATE COMPLEXES AND METHODS OF TREATMENT USING THE COMPLEXES” (SYRACUSE UNIVERSITY, priority 2009, published 2011)", "key": {"A2780/AD cell line": {"system": "A2780/AD cell line", "format": "cell-based, human", "description": "Cisplatin was used as a control and for comparative purposes. The IC50 values (μM) are for compounds 1-4 in A2780/AD cell line. Cisplatin controls and dimeric complexes previously reported are also shown for comparison:\nExperimental details for the in-vitro cell testing of compounds [Co(phen)2(H2P2O7)].4H2O (1.4H2O), [Ni(phen)2(H2P2O7)].8H2O (2.8H2O) and [Cu(phen)(H2O)(H2P2O7)]. For in vitro cell studies, all experiments were performed in a Labconco Purifier I laminar flow hood that had been disinfected with 70% ethanol and irradiated with UV light. The A2780/AD cell line that was used for testing was provided by the Fox Chase Cancer Center, Philadelphia (USA). Fetal bovine serum (FBS) was purchased from Hyclone. Penicillin-streptomycin solution with 10,000 units penicillin and 10 mg/mL streptomycin in 0.9% NaCl was obtained from Sigma. Gibco RPMI 1640 growth media that contained L-glutamine and phenol red was supplied by Invitrogen. Cellgro Cellstripper, a non-enzymatic cell dissociation solution, was obtained from Mediatech. Growth media were filtered with 0.22 μm filter (VWR). Cell Counting Kit 8 (CCK8) was purchased from Dojindo. Cells were incubated and grown in an incubator that was purchased from VWR. Optical densities of the cell cultures were measured at 450 nm with Thermo Multiskan EX that was equipped with Ascent software version 2.6.\nCell lines and culture conditions. The A2780/AD cell line was cultured in BD Falcon 25 cm^2 surface area, canted neck flaks with vented cap (VWR) containing RPMI media supplemented with 10% FBS and 10% Penicillin-Streptomycin solution by volume. Subcultures were generated by incubating the cells with Cellstripper, and passing cells at a 1:10 culture ratio.\nDrug cytotoxicity. Cells used for studies were diluted to make either a solution of 50,000 cells/mL, used for the 72 h studies, or 80,000 cells/mL, used for the 6 and 24 h studies. 100 μL of the cell solution was added to the wells of a 96 well plate, and the cells were allowed to adhere overnight. The media was then removed from the 96 well plates and replaced with either 100 μL (for 6 h studies) or 200 μL (for 24 and 72 h studies) of media containing drug. Drug solutions were prepared by dissolving the drug in media (compounds 2, 4) or in a 25% methanol solution (compounds 1, 3). The solutions were filter sterilized and serially diluted 1:10. The concentration of methanol was kept below 5% for all concentrations studied. Cisplatin was prepared by dissolving in PBS and sonicating for 1 h to create a final concentration of 0.5 mg/mL (1.66 mM). Each drug was tested over 9 concentrations in triplicate with each point in done in triplicate. After the incubation period, the drug containing media was removed and replaced with 100 μL of media containing 10% CCK-8 solution by volume. The plates were incubated until the control reached 0.8-1.2 absorbance at 450 nm (2, 1.5 and 0.5 h for the 6, 24, 72 h runs respectively). The absorbance was measured at 450 nm via a plate reader. A blank was subtracted from all wells, and the results were plotted as a percentage compared to the control vs. concentration of drug. IC50 values were calculated by fitting the data using Prism Graphpad 5 using a nonlinear, dose response curve with a 4 variable fit. The reported ICso values are an average of at least 3 runs reported with standard deviation."}, "[1]": {"system": "adriamycin-resistant human ovarian cancer cell line (A2780/AD)", "experiment": "Proliferation colorimetric assay (WSK-8) of compounds 11-13 in A2780/AD", "format": "cell-based", "details": "for toxicity in words: 24 and 72 h", "description": "Compounds 11, 12, and 13 were tested against the adriamycin-resistant human ovarian cancer cell line (A2780/AD) over a time period of 24 and 72 h (Table 8 below). Cisplatin was used as an external control. Adriamycin resistant ovarian cancer cell line (A2780/AD) were cultured as adherent monolayers in RPMI 1640 (Invitrogen) growth media containing L-glutamine and folic acid supplemented with 10,000 units penicillin, 10 mg/ml streptomycin (Sigma) and 10% (v/v) fetal bovine serum (Sigma). Cells were incubated and grown in a VWR mammalian incubator at 5% CO2 and 95% humidity. All preparations for cell culture and assays were conducted in a sterile environment under a Labconco Purifier I Laminar flow hood. Cells were cultured in Millipore 250 mL culture bottles with vented lids.\nThe proliferation of the exponential phase cultures of A2780/AD were assessed by colorimetric assay. WSK-8 (Dojindo) was performed according to manufacturer's instruction. Adherent cell cultures were harvested by stripping of culture flask by a non-enzymatic cell stripper (Mediatech) after a 30 minute incubation period. The cells were then collected. The cell density was adjusted with the addition of RPMI 1640 media to 80,000 cells/mL for exponential growth for the period of drug exposure. To each well, aliquots of 100 μL were inoculated resulting in 8,000 cells per well. After a 24 h incubation time to facilitate adherence, the media was removed and replaced with 200 μl of fresh media containing different concentrations of compounds 11, 12, and 13. The cells were then incubated for 24 and 72 h. Optical densities were measured at 450 nm using a plate reader. The percentage of cell viability was determined relative to untreated control microcultures. The IC50 concentrations were calculated based on a sigmoidal (doseresponse) fit using OriginLabs 8 software with R^2 values ≧0.70 in all cases (average R^2 value 0.90). All experimental points were measured in triplicate and each experiment was performed at least three times on separate “batches” of synthesized compound. A2780/AD2O cells used were fewer than 12 passages for all testing."}, "[2]": {"system": "adriamycin-resistant human ovarian cancer cell line (A2780/AD)", "details": "dimeric complexes previously reported (Ref 3), cited from earlier work"}, "[3]": {"details": "A2780/AD, 6 h exposure, read-out: IC50 6 h"}, "[4]": {"details": "A2780/AD, 24 h exposure, read-out: IC50 24 h"}, "[5]": {"details": "A2780/AD, 72 h exposure, read-out: IC50 72 h"}, "[6]": {"details": "24 h exposure, read-out: IC50 24 h"}, "[7]": {"details": "72 h exposure, read-out: IC50 72 h"}}, "note": "Like-named read-outs stand apart in the source and are kept apart here.", "data": [{"molecule": "O.O.O.O.O.O.O.O.O.O.O.O.O.O.O.O=P([O-])([O-])OP(=O)([O-])[O-].[Cu+2].[Na+].[Na+].c1cnc2c(c1)ccc1cccnc12", "note": "[compound 4, {[Cu(phen)(H2O)(P2O7)] [Na2(H2O)8]}.6H2O]", "values": [{"measurement": "IC50", "setting": "A2780/AD cell line", "value": "0.03 to 0.08", "unit": "µM"}, {"measurement": "cytotoxic activity in words", "setting": "A2780/AD cell line", "value": "low nanomolar range"}, {"measurement": "IC50", "setting": "A2780/AD cell line; [3]", "value": "15 ± 6", "unit": "µM"}, {"measurement": "IC50", "setting": "A2780/AD cell line; [4]", "value": "0.6 ± 0.6", "unit": "µM"}, {"measurement": "IC50", "setting": "A2780/AD cell line; [5]", "value": "0.08 ± 0.03", "unit": "µM"}]}, {"molecule": "O=P([O-])(O)OP(=O)([O-])O.[Co+2].c1cnc2c(c1)ccc1cccnc12.c1cnc2c(c1)ccc1cccnc12", "note": "[compound 1, [Co(phen)2(H2P2O7)].4H2O]", "values": [{"measurement": "IC50", "setting": "A2780/AD cell line", "value": "0.03 to 0.08", "unit": "µM"}, {"measurement": "cytotoxic activity in words", "setting": "A2780/AD cell line", "value": "low nanomolar range"}, {"measurement": "IC50", "setting": "A2780/AD cell line; [3]", "value": "> 1000", "unit": "µM"}, {"measurement": "IC50", "setting": "A2780/AD cell line; [4]", "value": 5, "unit": "µM"}, {"measurement": "IC50", "setting": "A2780/AD cell line; [5]", "value": "0.03 ± 0.02", "unit": "µM"}]}, {"molecule": "O.O.O.O.O.O.O.O.O.O.O=P([O-])([O-])OP(=O)([O-])[O-].[Cu+2].[Cu+2].c1cnc2c(c1)ccc1cccnc12.c1cnc2c(c1)ccc1cccnc12", "note": "[compound 12, {[Cu(phen)(H2O)]2(μ-P2O7)}.8H2O]", "values": [{"measurement": "toxicity in words", "setting": "[1]", "value": "significant toxicity"}, {"measurement": "IC50", "setting": "[1]; [6]", "value": "0.64 ± 0.12", "unit": "µM"}, {"measurement": "IC50", "setting": "[2]; 24 h, read-out: IC50 24 h", "value": 0.6, "unit": "µM"}, {"measurement": "IC50", "setting": "[2]; 72 h, read-out: IC50 72 h", "value": 0.0018, "unit": "µM"}]}, {"molecule": "O=P([O-])(O)OP(=O)([O-])O.[Ni+2].c1cnc2c(c1)ccc1cccnc12.c1cnc2c(c1)ccc1cccnc12", "note": "[compound 2, [Ni(phen)2(H2P2O7)].8H2O]", "values": [{"measurement": "toxicity in words", "setting": "[1]", "value": "low nanomolar inhibitory concentrations"}, {"measurement": "cytotoxic activity in words", "setting": "A2780/AD cell line", "value": "little activity"}, {"measurement": "IC50", "setting": "A2780/AD cell line; [3]", "value": "> 1000", "unit": "µM"}, {"measurement": "IC50", "setting": "A2780/AD cell line; [4]", "value": "> 1000", "unit": "µM"}, {"measurement": "IC50", "setting": "A2780/AD cell line; [5]", "value": "630 ± 390", "unit": "µM"}]}, {"molecule": "O.O=P([O-])(O)OP(=O)([O-])O.[Cu+2].c1cnc2c(c1)ccc1cccnc12", "note": "[compound 3, [Cu(phen)(H2O)(H2P2O7)]]", "values": [{"measurement": "IC50", "setting": "[1]; 72 h, read-out: IC50 at 72 h", "value": "~0.000162", "unit": "µM"}, {"measurement": "cytotoxic activity in words", "setting": "A2780/AD cell line", "value": "low nanomolar range"}, {"measurement": "IC50", "setting": "A2780/AD cell line; [3]", "value": "14 ± 6", "unit": "µM"}, {"measurement": "IC50", "setting": "A2780/AD cell line; [4]", "value": 0.7, "unit": "µM"}, {"measurement": "IC50", "setting": "A2780/AD cell line; [5]", "value": "0.14 ± 0.05", "unit": "µM"}]}, {"molecule": "O=P([O-])([O-])OP(=O)([O-])[O-].[Co+2].[Co+2].c1cnc2c(c1)ccc1cccnc12.c1cnc2c(c1)ccc1cccnc12.c1cnc2c(c1)ccc1cccnc12.c1cnc2c(c1)ccc1cccnc12", "note": "[compound 13, {[Co(phen)2]2(μ-25 P2O7)}.6MeOH]", "values": [{"measurement": "toxicity in words", "setting": "[1]", "value": "significant toxicity"}, {"measurement": "IC50", "setting": "[1]; [6]", "value": "2.01 ± 0.86", "unit": "µM"}, {"measurement": "IC50", "setting": "[1]; 72 h, read-out: IC50 at 72 h", "value": 0.00016, "unit": "µM"}, {"measurement": "IC50", "setting": "[2]; 24 h, read-out: IC50 24 h", "value": 2, "unit": "µM"}, {"measurement": "IC50", "setting": "[2]; 72 h, read-out: IC50 72 h", "value": 0.00017, "unit": "µM"}]}, {"molecule": "O=P([O-])([O-])OP(=O)([O-])[O-].[Ni+2].[Ni+2].c1cnc2c(c1)ccc1cccnc12.c1cnc2c(c1)ccc1cccnc12.c1cnc2c(c1)ccc1cccnc12.c1cnc2c(c1)ccc1cccnc12", "note": "[compound 11, {[Ni(phen)2]2(μ-P2O7)}.27H2O]", "values": [{"measurement": "toxicity in words", "setting": "[1]", "value": "low toxicity"}, {"measurement": "IC50", "setting": "[1]; [6]", "value": "589 ± 31.6", "unit": "µM"}, {"measurement": "IC50", "setting": "[1]; [7]", "value": "304 ± 40.9", "unit": "µM"}, {"measurement": "IC50", "setting": "[2]; 24 h, read-out: IC50 24 h", "value": 590, "unit": "µM"}, {"measurement": "IC50", "setting": "[2]; 72 h, read-out: IC50 72 h", "value": 304, "unit": "µM"}]}, {"molecule": "cis-[Pt(NH3)2Cl2] [Cisplatin, reference compound]", "values": [{"measurement": "IC50", "setting": "[1]; [6]", "value": "84 ± 10.3", "unit": "µM"}, {"measurement": "IC50", "setting": "[1]; [7]", "value": "11 ± 1.5", "unit": "µM"}, {"measurement": "IC50", "setting": "A2780/AD cell line; [3]", "value": "> 160", "unit": "µM"}, {"measurement": "IC50", "setting": "A2780/AD cell line; [4]", "value": "200 ± 16", "unit": "µM"}, {"measurement": "IC50", "setting": "A2780/AD cell line; [5]", "value": "13 ± 5", "unit": "µM"}]}]}
